This note sets out measurements from US4035485A, “Polypeptides” (Imperial Chemical Industries Limited, priority 1974, dated 1977).

Data set [1] has as its system secretion of acidic gastric juice in dogs provided with a Heidenhain pouch and whose gastric secretion is stimulated with histamine. Nature of the data set: Inhibition of histamine-stimulated gastric acid secretion in Heidenhain pouch dogs, intravenous injection. The data set is classed as in vivo, dog. Particulars: for biological activity (inhibition of the secretion of acidic gastric juice), in words: dog, histamine-stimulated gastric secretion; for biological potency (amount causing a 50-70% inhibition of acid secretion): intravenous injection, dog with Heidenhain pouch, secretion stimulated to 60-80% of maximum by histamine infusion, expressed as a range of doses; for biological activity, inhibition of gastric secretion: single determination, single intravenous injection. The protocol: This test is used to determine the biological potency of the products, which is defined as the amount of the products which, on administration by intravenous injection to a dog provided with a Heidenhain pouch and whose secretion of gastric acid is stimulated to 60-80- % of the maximum level of secretion by an infusion of histamine, causes a 50-70% inhibition of that acid secretion. Some variation in the biological potency of a particular sample is found if it is measured in different dogs or on different occasions and so the result is best expressed as a range of doses. The physiological effect of inhibiting the secretion of acidic gastric juice is of value in the treatment of duodenal ulcers, and under the test conditions, no serious toxic effects were observed. The polypeptides of the invention also show ulcer healing properties in a standard test.
In the case of each process involving the use of a chromatography column, the eluate was collected in fractions consisting of a defined number of drops using an Ultrorac LKB 7,000 fraction collector (LKB Instruments Ltd., Croydon, Surrey, U.K.) and these fractions assayed for peptide material by measuring the U.V. absorption at 280 mμ. The material was then collected in fractions and the material assayed for biological activity as follows:
Dogs were prepared with separated denervated fundic pouches, and a subcutaneous infusion of histamine was used to stimulate gastric secretion to approximately 60-80% of the maximal rate [usually an infusion of a solution of 600 μg. of histamine (expressed as base) in 0.48 ml. per hour is adequate]. A known amount of test material was dissolved in isotonic saline and, when the dog was secreting gastric juice at a steady rate, a single intravenous injection of this material was administered.
The biological potency may be determined from the results obtained at several different doses.

A short description of data set [2]: Water solubility of the isolated lyophilized polypeptide. The data set is classed as physicochemical. Particulars: lyophilized white acidic polypeptide.

As to “3: polypeptide of Example 2 in which the cystine residues had been reduced to cysteine residues (NSDSECPLSHDGYCLHDGVCMYIEALDKYACNCVVGYIGERCQYRD; Epidermal growth factor cystines reduced; UniProt P01133 971-1016, looked up, fragment) [Example 3]”, in data set [1], the “biological activity (inhibition of the secretion of acidic gastric juice), in words” value is “potent inhibitors”.

For the substance “material in fractions 38-52: peptide cleaved from β-urogastrone by AM protease; ratios Glu 1, Leu 1, Lys 1, Trp 2, Arg 1; N-terminal lysine (KWWELR; Epidermal growth factor; UniProt P01133 1018-1023, looked up, fragment)”, in data set [1], the “biological activity (inhibition of the secretion of acidic gastric juice), in words” value was “biologically inactive”.

With “polypeptide having 47 amino-acid residues: 47-residue single-chain polypeptide with three disulphide bonds obtained by incubating β-urogastrone with AM protease (NSDSECPLSHDGYCLHDGVCMYIEALDKYACNCVVGYIGERCQYRDL; Epidermal growth factor; UniProt P01133 971-1017, looked up, fragment)”, in data set [1], the “biological activity (inhibition of the secretion of acidic gastric juice), in words” value is “biologically active” and the “biological potency (amount causing a 50-70% inhibition of acid secretion)” value is reported as 0.2 to 1 μg./kg. Also, in data set [1] (dose equivalent to 0.7 μg./kg. of starting material), the “biological activity, inhibition of gastric secretion” value worked out at 30%. Also, in data set [2], the solubility in water result is recorded as “water soluble”.

For “Example 2: 46-residue single-chain polypeptide with three internal disulphide bonds, from the 47-residue polypeptide by carboxypeptidase A cleavage of C-terminal leucine (NSDSECPLSHDGYCLHDGVCMYIEALDKYACNCVVGYIGERCQYRD; Epidermal growth factor; UniProt P01133 971-1016, looked up, fragment)”, in data set [1], the “biological activity (inhibition of the secretion of acidic gastric juice), in words” value is “biologically active” and the “biological potency (amount causing a 50-70% inhibition of acid secretion)” value fell in the range of 0.2 to 1 μg./kg. The “biological activity (inhibition of the secretion of acidic gastric juice), in words” value in data set [1] (listed as polypeptide of the invention) is “potent inhibitors”. The “biological activity, inhibition of gastric secretion” value in data set [1] (dose equivalent to 0.6 μg./kg. of starting material) is on record as 42%. For the same substance, the solubility in water entry in data set [2] is reported as “water soluble”.
